{
  "source": "paper PMC8165439",
  "about": "“Chymase Dependent Pathway of Angiotensin II Generation and Rapeseed Derived Peptides for Antihypertensive Treatment of Spontaneously Hypertensive Rats” (Frontiers in Pharmacology, 2021)",
  "assay_type_in_all_cases": "in vivo, rat",
  "key": {"[1]": {"test_system": "spontaneously hypertensive rats (SHR)", "assay": "Chronic iv treatment, urinary albumin excretion (UAE)", "settings": "mean ± SEM, n = 5", "method": "(§1) Systolic and diastolic blood pressure (SBP and DBP, respectively) and heart rate (HR) were measured in conscious unrestrained rats by telemetry technique, once a week for 24 h. 24 hour observations in metabolic cages (Tecniplast S. p.A. Buguggiate, Italy) were performed weekly. The diuresis, weight of feces, food and water intake were measured; urine and blood samples were collected on day 0, 7th and 14th, and were centrifuged at 1200 g (blood for 15 min and urine for 5 min), then the samples were stored at –80°C until analysis.\n(§2) On day 0 all animals received saline (0.9% NaCl) and then, for 14 consecutive days, the substance tested. Chymostatin (CH, 2 mg/kg/day) was dissolved in DMSO and then diluted with PBS (final concentration of DMSO was 0.15%). Peptides RIY (7.5 mg/kg/day) and VWIS (12.5 mg/kg/day) were dissolved in saline (0.9% NaCl, S). The substances were administered through the femoral vein during 10 min in the volume of 0.5 ml to young SHR (infusion rate: 3 ml/h) and 1 ml to adult rats (infusion rate: 6 ml/h). Control rats received solvents (either DMSO or saline) in the same volume.\n(§3) Urine volume was determined by gravimetric method. Sodium and potassium concentration in urine and plasma were measured by flame photometry (PFP7/C, Jenway Ltd, Stone, United Kingdom). Urine and plasma osmolality were measured by freezing point depression (Osmomat® 030 M, Gonotec, Berlin, Germany). These parameters were used to determine the excretion rates of total solutes (UosmV), sodium (UNaV) and potassium (UKV). Commercially available ELISA kits were used to measure nitric oxide metabolites (NOx, SunRed, Shanghai) and albumin (Albumin, ICL, Portland) concentration in urine. Excretion rate of NOx (UNOxV) and albumin (UAE) were calculated."}, "[2]": {"test_system": "anesthetized spontaneously hypertensive rats (SHR)", "assay": "Acute infusion of chymostatin to anesthetized rats, mean arterial blood pressure", "settings": "anesthetized adult SHR, chymostatin 2 mg/kg iv infusion 1 h, n = 7; decrease observed 30 min after cessation of infusion", "method": "In acute experiments rats were anesthetized with intraperitoneal (ip) sodium thiopental (100 mg/kg; Sandoz GmbH, Kundl, Austria), which provided stable anesthesia for about 4 h. All surgical preparations were already described in detail ([Gawrys et al., 2014]; [Badzynska et al., 2020]). Throughout the experiment the temperature of the animal was kept constant (37°C). A cannula was placed in the trachea to ensure a free airway. The jugular vein was cannulated for infusion of fluids and drugs; during surgical preparations 3% bovine albumin in Ringer solution was infused at 10 ml/kg/h. For mean arterial blood pressure (MBP) measurement, a Teflon catheter was placed in the femoral artery (Stoelting Blood Pressure Meter, Wood Dale, IL, United States). After surgical preparations and stabilization of all parameters, a short control period (30 min) was made to obtain baseline for measured parameters. Chymostatin or its solvent (final concentration of DMSO was 0.05%) were administered for 1 h. After cessation of chymostatin infusion, a recovery period (30 min) was made. In the end, the animals were sacrificed by sodium thiopental overdose (iv); and vital life signs (blood pressure, breathing) were monitored until death."}, "[3]": {"test_system": "spontaneously hypertensive rats (SHR)", "assay": "Metabolic parameters in metabolic cages during chronic treatment", "settings": "mean ± SEM", "method": "as §1, §2, §3"}, "[4]": {"settings": "adult SHR (SHR-16), day 0 (baseline)"}, "[5]": {"settings": "adult SHR (SHR-16), day 7 of daily iv treatment"}, "[6]": {"settings": "adult SHR (SHR-16), day 14 of daily iv treatment"}, "[7]": {"settings": "young SHR (SHR-6), day 0 (baseline)"}, "[8]": {"settings": "young SHR (SHR-6), day 7 of daily iv treatment"}, "[9]": {"settings": "young SHR (SHR-6), day 14 of daily iv treatment"}},
  "data": [
    {"smiles": "CC(C)C[C@H](NC(=O)[C@@H](NC(=O)N[C@@H](Cc1ccccc1)C(=O)O)[C@@H]1CCN=C(N)N1)C(=O)N[C@H](C=O)Cc1ccccc1", "note": "[CH, chymostatin]", "values": [
      {"measurement": "Urinary albumin excretion (UAE)", "setting": "[1]; adult SHR, day 0 (baseline, saline)", "result": "0.59 ± 0.33", "unit": "mg/24h"},
      {"measurement": "Urinary albumin excretion (UAE)", "setting": "[1]; adult SHR, day 7 of daily iv CH 2, RIY 7.5, VWIS 12.5 mg/kg/day", "result": "0.41 ± 0.04", "unit": "mg/24h"},
      {"measurement": "Urinary albumin excretion (UAE)", "setting": "[1]; adult SHR, day 14 of daily iv CH 2, RIY 7.5, VWIS 12.5 mg/kg/day", "result": "0.84 ± 0.32", "unit": "mg/24h"},
      {"measurement": "Urinary albumin excretion (UAE)", "setting": "[1]; young SHR, day 0 (baseline, saline)", "result": "0.03 ± 0.01", "unit": "mg/24h"},
      {"measurement": "Urinary albumin excretion (UAE)", "setting": "[1]; young SHR, day 7 of daily iv CH 2, RIY 7.5, VWIS 12.5 mg/kg/day", "result": "0.07 ± 0.01", "unit": "mg/24h"},
      {"measurement": "Urinary albumin excretion (UAE)", "setting": "[1]; young SHR, day 14 of daily iv CH 2, RIY 7.5, VWIS 12.5 mg/kg/day", "result": "0.13 ± 0.03", "unit": "mg/24h"},
      {"measurement": "Mean blood pressure (MBP) after single intravenous infusion", "setting": "[2]", "result": "decreased significantly"},
      {"measurement": "Body weight", "setting": "[3]; adult SHR (SHR-16), day 0 (baseline), CH n=8, RIY n=5-6, VWIS n=5-6", "result": "271 ± 16", "unit": "g"},
      {"measurement": "Diuresis", "setting": "[3]; [4]", "result": "6.9 ± 1.9", "unit": "µL/min"},
      {"measurement": "Faeces", "setting": "[3]; [4]", "result": "9±1", "unit": "g/24 h"},
      {"measurement": "Food intake", "setting": "[3]; [4]", "result": "21±1", "unit": "g/24 h"},
      {"measurement": "Water intake", "setting": "[3]; [4]", "result": "29±3", "unit": "g/24 h"},
      {"measurement": "Body weight", "setting": "[3]; adult SHR (SHR-16), day 7 of daily iv CH 2, RIY 7.5, VWIS 12.5 mg/kg/day", "result": "285 ± 17", "unit": "g"},
      {"measurement": "Diuresis", "setting": "[3]; [5]", "result": "7.4 ± 2.1", "unit": "µL/min"},
      {"measurement": "Faeces", "setting": "[3]; [5]", "result": "8±1", "unit": "g/24 h"},
      {"measurement": "Food intake", "setting": "[3]; [5]", "result": "17±1", "unit": "g/24 h"},
      {"measurement": "Water intake", "setting": "[3]; [5]", "result": "29±3", "unit": "g/24 h"},
      {"measurement": "Body weight", "setting": "[3]; adult SHR (SHR-16), day 14 of daily iv CH 2, RIY 7.5, VWIS 12.5 mg/kg/day", "result": "298 ± 19", "unit": "g"},
      {"measurement": "Diuresis", "setting": "[3]; [6]", "result": "8.1 ± 2.9", "unit": "µL/min"},
      {"measurement": "Faeces", "setting": "[3]; [6]", "result": "9±1", "unit": "g/24 h"},
      {"measurement": "Food intake", "setting": "[3]; [6]", "result": "20±2", "unit": "g/24 h"},
      {"measurement": "Water intake", "setting": "[3]; [6]", "result": "29±4", "unit": "g/24 h"},
      {"measurement": "Body weight", "setting": "[3]; young SHR (SHR-6), day 0 (baseline), CH n=8-10, RIY n=5, VWIS n=5-6", "result": "131 ± 10", "unit": "g"},
      {"measurement": "Diuresis", "setting": "[3]; [7]", "result": "6.1 ± 0.5", "unit": "µL/min"},
      {"measurement": "Faeces", "setting": "[3]; [7]", "result": "7±1", "unit": "g/24 h"},
      {"measurement": "Food intake", "setting": "[3]; [7]", "result": "15±1", "unit": "g/24 h"},
      {"measurement": "Water intake", "setting": "[3]; [7]", "result": "23±2", "unit": "g/24 h"},
      {"measurement": "Body weight", "setting": "[3]; young SHR (SHR-6), day 7 of daily iv CH 2, RIY 7.5, VWIS 12.5 mg/kg/day", "result": "159 ± 5", "unit": "g"},
      {"measurement": "Diuresis", "setting": "[3]; [8]", "result": "9.9 ± 1.4", "unit": "µL/min"},
      {"measurement": "Faeces", "setting": "[3]; [8]", "result": "11±1", "unit": "g/24 h"},
      {"measurement": "Food intake", "setting": "[3]; [8]", "result": "18±2", "unit": "g/24 h"},
      {"measurement": "Water intake", "setting": "[3]; [8]", "result": "29±5", "unit": "g/24 h"},
      {"measurement": "Body weight", "setting": "[3]; young SHR (SHR-6), day 14 of daily iv CH 2, RIY 7.5, VWIS 12.5 mg/kg/day", "result": "196 ± 4", "unit": "g"},
      {"measurement": "Diuresis", "setting": "[3]; [9]", "result": "10.0 ± 0.9", "unit": "µL/min"},
      {"measurement": "Faeces", "setting": "[3]; [9]", "result": "12±1", "unit": "g/24 h"},
      {"measurement": "Food intake", "setting": "[3]; [9]", "result": "20±2", "unit": "g/24 h"},
      {"measurement": "Water intake", "setting": "[3]; [9]", "result": "32±3", "unit": "g/24 h"}
    ]}
  ]
}
